Test results: PubChem BioAssay AID2060885 (Molecular Pharmacology Branch, DTP, NCI, 2025)

System: NCI-H23 complex spheroids with HUVEC/MSC, viability
Assay: Anticancer human tumor NCI-H23 cell line growth inhibition [RAS];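 note: spheroids exposed to compound for 7 days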;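 for viability, T/C: 100% = DMSO vehicle control viability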
Conditions: for IC50: curve of first compound; for viability, T/C: stronger effect = lower value
Summary of the method: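 Tumour cells grown as complex spheroids with HUVEC endothelial cells and mesenchymal stem cells, treated with RAS pathway inhibitor combinations. Each agent spans half-log steps from near clinical Cmax, or 10 microM where Cmax is unknown.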

[1] = second compound 0.000949 µM, first compound 0.000949 µM
[2] = second compound 0.000949 µM, first compound 0.003 µM
[3] = second compound 0.000949 µM, first compound 0.00949 µM
[4] = second compound 0.000949 µM, first compound 0.03 µM
[5] = second compound 0.000949 µM, first compound 0.0949 µM
[6] = second compound 0.000949 µM, first compound 0.3 µM
[7] = second compound 0.003 µM, first compound 0.000949 µM
[8] = second compound 0.003 µM, first compound 0.003 µM
[9] = second compound 0.003 µM, first compound 0.00949 µM
[10] = second compound 0.003 µM, first compound 0.03 µM
[11] = second compound 0.003 µM, first compound 0.0949 µM
[12] = second compound 0.003 µM, first compound 0.3 µM
[13] = second compound 0.00949 µM, first compound 0.000949 µM
[14] = second compound 0.00949 µM, first compound 0.003 µM
[15] = second compound 0.00949 µM, first compound 0.00949 µM
[16] = second compound 0.00949 µM, first compound 0.03 µM
[17] = second compound 0.00949 µM, first compound 0.0949 µM
[18] = second compound 0.00949 µM, first compound 0.3 µM
[19] = second compound 0.03 µM, first compound 0.000949 µM
[20] = second compound 0.03 µM, first compound 0.003 µM
[21] = second compound 0.03 µM, first compound 0.00949 µM
[22] = second compound 0.03 µM, first compound 0.03 µM
[23] = second compound 0.03 µM, first compound 0.0949 µM
[24] = second compound 0.03 µM, first compound 0.3 µM
[25] = second compound 0.0949 µM, first compound 0.000949 µM
[26] = second compound 0.0949 µM, first compound 0.003 µM
[27] = second compound 0.0949 µM, first compound 0.00949 µM
[28] = second compound 0.0949 µM, first compound 0.03 µM
[29] = second compound 0.0949 µM, first compound 0.0949 µM
[30] = second compound 0.0949 µM, first compound 0.3 µM
[31] = second compound 0.3 µM, first compound 0.000949 µM
[32] = second compound 0.3 µM, first compound 0.003 µM
[33] = second compound 0.3 µM, first compound 0.00949 µM
[34] = second compound 0.3 µM, first compound 0.03 µM
[35] = second compound 0.3 µM, first compound 0.0949 µM
[36] = second compound 0.3 µM, first compound 0.3 µM

## CC1(C)CCC(Nc2ncc(C(F)(F)F)c(-c3c[nH]c4c(P(C)(C)=O)c(C#N)ccc34)n2)CN1 (centres undefined) + CCn1c(-c2cccnc2C(C)OC)c2c3cc(ccc31)N1CCOC(CC(NC(=O)C(C(C)C)N(C)C(=O)C3(F)CCN(C(=O)C#CC(C)(C)N(C)C)CC3)C(=O)N3CCCC(N3)C(=O)OCC(C)(C)C2)C1
Second compound 0.000949 µM
  IC50: < 0.949 nM
Second compound 0.003 µM
  IC50: < 0.949 nM
Second compound 0.00949 µM
  IC50: < 0.949 nM
Second compound 0.03 µM
  IC50: < 0.949 nM
Second compound 0.0949 µM
  IC50: < 0.949 nM
Second compound 0.3 µM
  IC50: < 0.949 nM
[1]
  viability, T/C: 26%
[2]
  viability, T/C: 21.2%
[3]
  viability, T/C: 14%
[4]
  viability, T/C: 16.1%
[5]
  viability, T/C: 14.7%
[6]
  viability, T/C: 11.3%
[7]
  viability, T/C: 22.4%
[8]
  viability, T/C: 17.4%
[9]
  viability, T/C: 15.5%
[10]
  viability, T/C: 15.2%
[11]
  viability, T/C: 15%
[12]
  viability, T/C: 11.6%
[13]
  viability, T/C: 23.9%
[14]
  viability, T/C: 17.5%
[15]
  viability, T/C: 15.9%
[16]
  viability, T/C: 15%
[17]
  viability, T/C: 13.1%
[18]
  viability, T/C: 13.2%
[19]
  viability, T/C: 21.9%
[20]
  viability, T/C: 19.2%
[21]
  viability, T/C: 17.8%
[22]
  viability, T/C: 15.7%
[23]
  viability, T/C: 12.4%
[24]
  viability, T/C: 13.3%
[25]
  viability, T/C: 21.8%
[26]
  viability, T/C: 19.2%
[27]
  viability, T/C: 16.8%
[28]
  viability, T/C: 13.8%
[29]
  viability, T/C: 11.8%
[30]
  viability, T/C: 13.2%
[31]
  viability, T/C: 18.8%
[32]
  viability, T/C: 17.9%
[33]
  viability, T/C: 15.3%
[34]
  viability, T/C: 12.3%
[35]
  viability, T/C: 11.3%
[36]
  viability, T/C: 13.7%

## CCc1c2c(nc3ccc(O)cc13)-c1cc3c(c(=O)n1C2)COC(=O)[C@]3(O)CC + CCn1c(-c2cccnc2C(C)OC)c2c3cc(ccc31)N1CCOC(CC(NC(=O)C(C(C)C)N(C)C(=O)C3(F)CCN(C(=O)C#CC(C)(C)N(C)C)CC3)C(=O)N3CCCC(N3)C(=O)OCC(C)(C)C2)C1
Second compound 0.000949 µM
  IC50: < 0.949 nM
Second compound 0.003 µM
  IC50: < 0.949 nM
Second compound 0.00949 µM
  IC50: < 0.949 nM
Second compound 0.03 µM
  IC50: < 0.949 nM
Second compound 0.0949 µM
  IC50: < 0.949 nM
Second compound 0.3 µM
  IC50: < 0.949 nM
[1]
  viability, T/C: 27.9%
[2]
  viability, T/C: 13.4%
[3]
  viability, T/C: 3.4%
[4]
  viability, T/C: 2.46%
[5]
  viability, T/C: 1.53%
[6]
  viability, T/C: 0.79%
[7]
  viability, T/C: 23.4%
[8]
  viability, T/C: 12.6%
[9]
  viability, T/C: 3.29%
[10]
  viability, T/C: 1.82%
[11]
  viability, T/C: 1.53%
[12]
  viability, T/C: 0.91%
[13]
  viability, T/C: 27.1%
[14]
  viability, T/C: 11.9%
[15]
  viability, T/C: 3.95%
[16]
  viability, T/C: 2.01%
[17]
  viability, T/C: 1.54%
[18]
  viability, T/C: 0.96%
[19]
  viability, T/C: 25.5%
[20]
  viability, T/C: 12.3%
[21]
  viability, T/C: 3.53%
[22]
  viability, T/C: 2.17%
[23]
  viability, T/C: 1.25%
[24]
  viability, T/C: 0.77%
[25]
  viability, T/C: 23.6%
[26]
  viability, T/C: 8.82%
[27]
  viability, T/C: 3.56%
[28]
  viability, T/C: 1.45%
[29]
  viability, T/C: 0.88%
[30]
  viability, T/C: 0.84%
[31]
  viability, T/C: 18.7%
[32]
  viability, T/C: 7.22%
[33]
  viability, T/C: 2.67%
[34]
  viability, T/C: 1.54%
[35]
  viability, T/C: 1.11%
[36]
  viability, T/C: 1.43%
